Measured values from patent publication US20210171576A1, “METHODS FOR TREATING CANCER WITH ACYLDEPSIPEPTIDE ANALOGS” (priority 2018, published 2021).
Where a SMILES comes first, the peptide text is derived from it. Bridges are numbered along the chain shown (N, C = ends). [ ]: non-standard residue; d: D form. The star is where a group is joined. Phe(3,5-F2) = N[C@@H](Cc1cc(F)cc(F)c1)C(=O)O; Pip(4S-Me) = C[C@H]1CCN[C@H](C(=O)O)C1; 2Nal = N[C@@H](Cc1ccc2ccccc2c1)C(=O)O; Pro(4R-Me) = C[C@H]1CN[C@H](C(=O)O)C1; Tiq1c(1S) = O=C(O)[C@H]1NCCc2ccccc21; Bta = N[C@@H](Cc1csc2ccccc12)C(=O)O; X12 = O=C(/C=C/c1cccc(C(F)(F)F)c1)*; Heptenoyl(2E) = CCCC/C=C/C(=O)*; aThr = C[C@H](O)[C@H](N)C(=O)O; Pip = O=C(O)[C@@H]1CCCCN1; NMeA = CN[C@@H](C)C(=O)O; X1 = CCC/C=C/C=C/C(=O)*; X11 = O=C(/C=C/C=C/CO)*; Boc = CC(C)(C)OC(=O)*; X7 = CCC/C=C\C(=O)*

Legend:
HsCIpP [1] = biological target: T1, HsCIpP (Homo sapiens, UniProt Q16740, P57S); experiment: Peptidase activity assay (Ac-WLA-AMC cleavage) with ADEP; assay type: biochemical; conditions: 6 μM HsCIpP, 100 μM Ac-WLA-AMC
T1 construct: 2x(His6-thrombin)-SUMO (N, cleaved yes); made in house; host or cells: E. coli (SG1146 stated for HsClpP; 'a similar protocol' for HsClpX)
Description: The peptidase activity of purified, untagged HsCIpP was assessed by monitoring the degradation of peptidyl substrates labelled with a C-terminal 7-amido-4-methylcoumarin (AMC) fluorophore. […] To identify a suitable peptidyl substrate, commercially available AMC-labelled peptides were purchased and tested for degradation by HsCIpP. These include N-acetyl-Trp-Leu-Ala-AMC (Ac-WLA-AMC) (R&D Systems) that was also previously used by Csizmadia et (Csizmadia et al., 2016), benzyloxycarbonyl-Arg-Arg-AMC (Z-RR-AMC) (Sigma-Aldrich), N-acetyl-Leu-Glu-His-Asp-AMC […] (Sigma-Aldrich), N-acetyl-Val-Glu-Thr-Asp-AMC (Ac-VETD-AMC) (Sigma-Aldrich), and benzyloxycarbonyl-Leu-Leu-Leu-AMC (Z-LLL-AMC) (Sigma-Aldrich). Suc-LY-AMC (MP Biomedicals) was also tested as a negative control. All stock solutions of the AMC-labelled peptides were prepared by dissolving the lyophilized peptides in DMSO at 90 mM or a lower concentration recommended by the manufacturer. […] Degradation of the peptidyl substrates and subsequent release of the free AMC moiety was monitored by fluorescence with λex=360 nm and λem=440 nm using the EnSpire 2300 Multilabel Reader (Perkin-Elmer) set to perform a reading every 30 s with 20 flashes. A total of 240 readings were collected for each of three independent replicates prepared for each peptidyl substrate. […]
Initial degradation rates data were analyzed using the Hill model. […]

[2] = biological target: T2, human mitochondrial CIpP (HsCIpP) (Homo sapiens, UniProt Q16740); experiment: Screen of ADEP analogs against HsCIpP: relative degradation (RD) index, casein-FITC degradation relative to E. coli CIpAP; assay type: biochemical; parameters: key: casein-FITC degradation by HsClpP relative to EcClpAP; conditions: for Hs RD1: RD value at 1 μM of the ADEP analog; for Hs RD5: RD value at 5 μM of the ADEP analog; for Hs RD25: RD value at 25 μM of the ADEP analog, measure of ability to activate HsCIpP
T2 construct: made in house; host or cells: E. coli SG1146 (BL21(DE3) ΔclpP::cat)
From the text: Structural analogs of acyldepsipeptide (ADEP) (Goodreid et al., 2016) that were previously developed as potential antibiotics against bacterial CIpP were screened and assessed for their ability to activate and dysregulate the protease activity of HsCIpP, by measuring their relative degradation (RD) index. Note that ADEP-28 was also previously reported by Carney et al. (2014). Details of the experimental protocol have been described in Leung et al., 2011. The RD index is defined as follows: […]
Δφ is the change in fluorescence after 6 hr of starting the reaction measured using 485 nm excitation and 535 nm emission, which primarily detects the signal from casein-FITC. E. coli CIpAP was used as a benchmark for maximum CIpP proteolytic activity. The CIpP in the numerator can be from any other organism. RD25 measurements refer to the measurement in the presence of 25 μM compound. All ADEP analogs were first screened at 25 μM, and their RD25 scores were calculated using the above formula and method as described in Leung et al., 2011 (FIG. 1A). Those that achieved RD25≥0.87 were screened a second time at 5 μM, followed by calculation of their RD5 scores. The top analogs with RD5≥0.74 were screened a third time at 1 μM, followed by calculation of their RD1 scores (FIG. 1B).
To identify ADEP analogs that allow HsCIpP to degrade folded proteins independent of HsCIpX+ATP (i.e., that activate or dysregulate HsCIpP), the inventors employed the in vitro screening method that was used for identifying small molecule activators of Escherichia coli CIpP (EcCIpP) (Leung et al., 2011). In this approach, the ability of HsCIpP to degrade FITC-labeled casein (casein-FITC) was measured and compared to the ability of EcCIpAP to degrade casein-FITC. This is quantitatively expressed as relative degradation (RD) index (Leung et al., 2011).

HEK293 cells = conditions: reported (Bram et al., 2006); cited from earlier work
HsCIpP [3] = biological target: T1, HsCIpP; experiment: Casein-FITC degradation by HsCIpP with HsCIpX titrated; assay type: biochemical; conditions: HsCIpX titrated 0 to 18 μM, 3 μM HsCIpP
Description: The protease activity of purified HsCIpP was assessed by monitoring the degradation of bovine milk casein labelled with fluorescein isothiocyanate (casein-FITC) (Sigma-Aldrich) in the presence of ADEP and/or purified HsCIpX. All reactions were carried out in 25 mM HEPES, pH 7.5, 35 mM KCl, 25 mM MgCl2, 0.03% Tween-20, 10% glycerol, and 1 mM DTT, supplemented with 16 mM creatine phosphate and 300 μM ATP. HsCIpP was used at 3 μM (final monomeric concentration) and casein-FITC was added at the final concentration of 10 μM. 13 U of creatine phosphokinase (Sigma-Aldrich) was also added for ATP regeneration. DMSO was present at 1% (v:v) final concentration in the experiments that involve the use of ADEP analogs. All reactions were carried out with 150 μL of the reaction mix per well in a 96-well black flat-bottom plate at 37° C. Degradation of casein-FITC and subsequent release of the free FITC moiety was monitored by fluorescence with λex=494 nm and λem=518 nm using the EnSpire 2300 Multilabel Reader set to perform a reading every 40 s with 20 flashes. A total of 100 readings were collected in each experiment.
To investigate the casein-FITC degradation by HsCIpXP, kinetic analysis was performed with HsCIpP held constant at 3 μM (final monomeric concentration) and HsCIpX was titrated from 0 to 18 μM (final monomeric concentration). Initial rates (v0) were determined from data collected over three independent experiments. Non-linear regression analysis was then performed on the initial rates data using the Hill equation, as follows: […]
Vmax is maximal velocity, h is the Hill coefficient, and K0.5 is the microscopic apparent dissociation constant.

T2 sequence (Q16740 57-277): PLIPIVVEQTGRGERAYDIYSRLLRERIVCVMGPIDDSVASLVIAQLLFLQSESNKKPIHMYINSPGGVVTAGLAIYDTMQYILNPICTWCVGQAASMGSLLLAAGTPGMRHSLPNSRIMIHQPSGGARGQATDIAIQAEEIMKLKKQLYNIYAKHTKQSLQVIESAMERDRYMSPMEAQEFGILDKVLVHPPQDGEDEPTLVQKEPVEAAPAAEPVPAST
T1 sequence (Q16740 57-277 P57S): as the sequence (Q16740 57-277) above, with P1S counted along it

Molecule | Hs RD5 [2] | Hs RD25 [2] | further results
CCC/C=C/C=C/C(=O)N[C@@H](Cc1ccccc1)C(=O)N[C@H]1COC(=O)[C@@H]2C[C@@H](C)CN2C(=O)[C@H](C)NC(=O)[C@H](C)N(C)C(=O)[C@@H]2CCCN2C1=O [ADEP-04] (X1-FSP[NMeA]A[Pro(4R-Me)]; ester 2-C) | 0.78 | 1.03 | Hill coefficient (h), peptidase activity (HsCIpP [1]): 0.8; Hs RD1 [2]: 0.32
CCC/C=C\C(=O)N[C@@H](Cc1ccccc1)C(=O)N[C@H]1COC(=O)[C@@H]2CCCN2C(=O)[C@H](C)NC(=O)[C@H](C)N(C)C(=O)[C@@H]2CCCN2C1=O [ADEP-33] (X7-FSP[NMeA]AP; ester 2-C) | – | 0.07 | –
C[C@@H]1NC(=O)[C@H](C)N(C)C(=O)[C@@H]2CCCN2C(=O)[C@@H](NC(=O)[C@H](Cc2ccccc2)NC(=O)OC(C)(C)C)COC(=O)[C@@H]2CCCN2C1=O [ADEP-34] (Boc-FSP[NMeA]AP; ester 2-C) | – | 0.00 | –
C[C@@H]1C[C@H]2C(=O)OC[C@H](NC(=O)[C@H](Cc3ccccc3)NC(=O)OC(C)(C)C)C(=O)N3CCC[C@H]3C(=O)N(C)[C@@H](C)C(=O)N[C@@H](C)C(=O)N2C1 [ADEP-35] (Boc-FSP[NMeA]A[Pro(4R-Me)]; ester 2-C) | – | 0.00 | –
C[C@@H]1C[C@H]2C(=O)OC[C@H](NC(=O)[C@H](Cc3ccccc3)NC(=O)/C=C/C=C/CO)C(=O)N3CCC[C@H]3C(=O)N(C)[C@@H](C)C(=O)N[C@@H](C)C(=O)N2C1 [ADEP-36] (X11-FSP[NMeA]A[Pro(4R-Me)]; ester 2-C) | – | 0.00 | –
CCCC/C=C/C(=O)N[C@@H](Cc1cc(F)cc(F)c1)C(=O)N[C@H]1COC(=O)[C@@H]2C[C@@H](C)CN2C(=O)[C@H](C)NC(=O)[C@@H]2c3ccccc3CCN2C(=O)[C@@H]2CCCN2C1=O [ADEP-37] ({Heptenoyl(2E)}-[Phe(3,5-F2)]SP[Tiq1c(1S)]A[Pro(4R-Me)]; ester 2-C) | 0.86 | 0.92 | Hs RD1 [2]: 0.68
CCCC/C=C/C(=O)N[C@@H](Cc1cc(F)cc(F)c1)C(=O)N[C@@H]1C(=O)N2CCC[C@H]2C(=O)N2CC[C@H](C)C[C@H]2C(=O)N[C@@H](C)C(=O)N2C[C@H](C)C[C@H]2C(=O)O[C@H]1C [ADEP-38] ({Heptenoyl(2E)}-[Phe(3,5-F2)][aThr]P[Pip(4S-Me)]A[Pro(4R-Me)]; ester 2-C) | 0.89 | 0.95 | Hs RD1 [2]: 0.76
C[C@@H]1C[C@H]2C(=O)O[C@@H](C)[C@H](NC(=O)[C@H](Cc3cc(F)cc(F)c3)NC(=O)/C=C/c3cccc(C(F)(F)F)c3)C(=O)N3CCC[C@H]3C(=O)N3CC[C@H](C)C[C@H]3C(=O)N[C@@H](C)C(=O)N2C1 [ADEP-39] (X12-[Phe(3,5-F2)][aThr]P[Pip(4S-Me)]A[Pro(4R-Me)]; ester 2-C) | – | 0.78 | –
C[C@@H]1NC(=O)[C@H](C)N(C)C(=O)[C@@H]2CCCN2C(=O)[C@@H](NC(=O)[C@@H](N)Cc2ccccc2)COC(=O)[C@@H]2CCCN2C1=O [ADEP-40] (H-FSP[NMeA]AP; ester 2-C) | – | 0.00 | –
CCCC/C=C/C(=O)N[C@@H](Cc1csc2ccccc12)C(=O)N[C@H]1COC(=O)[C@@H]2C[C@@H](C)CN2C(=O)[C@H](C)NC(=O)[C@@H]2CCCCN2C(=O)[C@@H]2CCCN2C1=O [ADEP-42] ({Heptenoyl(2E)}-[Bta]SP[Pip]A[Pro(4R-Me)]; ester 2-C) | 0.49 | 0.87 | –
CCCC/C=C/C(=O)N[C@@H](Cc1ccc2ccccc2c1)C(=O)N[C@H]1COC(=O)[C@@H]2C[C@@H](C)CN2C(=O)[C@H](C)NC(=O)[C@@H]2CCCCN2C(=O)[C@@H]2CCCN2C1=O [ADEP-43] ({Heptenoyl(2E)}-[2Nal]SP[Pip]A[Pro(4R-Me)]; ester 2-C) | 0.55 | 0.87 | –
CCCC/C=C/C(=O)N[C@@H](Cc1c(F)c(F)c(F)c(F)c1F)C(=O)N[C@H]1COC(=O)[C@@H]2C[C@@H](C)CN2C(=O)[C@H](C)NC(=O)[C@@H]2CCCCN2C(=O)[C@@H]2CCCN2C1=O [ADEP-45] | – | 0.29 | –
Cc1nc(N)nc(N)c1-c1ccc(Cl)c(Cl)c1 [Metoprine] | – | – | IC50 (HEK293 cells): 800 nM
N.N.[Cl][Pt][Cl] [cisplatin] | – | – | IC50 (HEK293 cells): 430 nM
HsCIpX: the AAA+ ATPase HsCIpX, untagged human mitochondrial ClpX, partner of HsCIpP | – | – | Hill coefficient (h) (HsCIpP [3]): 1.25; Vmax (HsCIpP [3]): 6.88 RFU.s^−1; Kd (HsCIpP [3]; read-out: K0.5): 5700 nM
